The values that follow come from article PMC5764337 (PLoS ONE, 2018).

A word on the IC50: it is the concentration at which inhibition is half-maximal.

Molecules are shown by their SMILES.

Assay [1] has as its target A/PR8-WT virus NA (Influenza A virus (H3N2), UniProt A0A193ACB1). The assay is classed as biochemical.
Assay [2] addresses B/BR/60/08 virus NA (Influenza B virus, UniProt C0LT34). It is filed as biochemical. The settings on record: read-out: NA enzyme inhibition assay (mean IC50 ± SD).

Take `CCC(CC)[C@H](NC(C)=O)[C@@H]1[C@H](O)[C@@H](C(=O)O)C[C@H]1N=C(N)N` [Peramivir, peramivir]: the “fold increase in IC50 over A/PR8-WT” value in assay [1] is 0.1 ± 0.02 (1) fold. In addition, the 50% inhibitory concentration (IC50) in assay [1] (read-out: NA enzyme inhibition assay (mean IC50 ± SD)) amounted to 0.1 nM; in assay [2] it was 0.5 nM.
